These results are taken from patent US20190209548A1, “LINKED DIARYL COMPOUNDS WITH ANTICANCER PROPERTIES AND METHODS OF USING THE SAME” (University of Maryland, College Park, priority 2014, published 2019).

The subject of data set [1] is triple-negative breast cancer cells. The data set can be described thus: Cancer cell migration. In kind it is cell-based. Particulars: increasing concentration. An excerpt:
FIG. 36. […] Red=negative control—no FCS in bottom well. Green=DMSO. Blue and pink=increasing concentration of 630-1.

The test system of another data set is PC-3. The experiment in a line: WST-1 IC50 determination, PC-3. The data set is classed as cell-based, human. The protocol: (§1) Cell lines and culturing. The following human cell lines were purchased from ATCC (ATCC, Manassas, Va.): prostate cancer cells (PC-3), triple negative breast cancer cells (MDA-MB-231), ovarian cancer cells (OVCAR-3), normal bone marrow (NBM) and normal fibroblast cells (MCR5A). MDA-MB-231 cells were grown at 37° C. with 5% CO2 atmosphere with DMEM (Life technologies, Carlsbad, Calif.) supplemented with heat-inactivated 10% (V/V) fetal bovine serum. OVCAR-3 and PC-3 cells were grown at 37° C. with 5% CO2 atmosphere with RPMI (Life technologies, Carlsbad, Calif.) supplemented with heat-inactivated 10% (V/V) fetal bovine serum. Cell lines were grown and maintained according to ATCC recommendations.
(§2) IC50 determination. Cell lines were seeded into 96-well plates the afternoon prior to treatment. Cell seeding number was determined by growing cells in log phase growth during drug treatment. Approximately 18 hours later, compounds were semi-serially diluted in dimethyl sulfoxide (DMSO) and then growth medium, and added to cells. Plates were incubated for 72 hours prior to addition of WST-1 (Promega, Madison Wis.). Plates were read after 4 additional hours of incubation at 37° C. using a Bio-Tek Synergy HT plate reader (Bio-Tek, Winooski, Vt.). Data was analyzed, graphed and IC50s generated using GraphPad Prism Software (Graphpad, La Jolla, Calif.).
(§3) IC50 determination: For the determination of IC50 for the azolamide class, the same protocol as described previously was followed.

A further data set deals with U87. The data set can be described thus: IC50 determination, U87. In kind it is cell-based. Particulars: Homo sapiens, U-87 MG; Glioblastoma; read-out: Anticancer activities, U87. As to the method:
as §2, §3

For the next data set, the system named is MDA-MB-231. The data set can be described thus: WST-1 IC50 determination, MDA-MB-231. In kind it is cell-based, human. The protocol: as §1, §2, §3
The nature of data set [2]: Human liver microsome stability. The data set is classed as in vitro ADME. An excerpt:
An established method to determine the pharmacokinetic clearance of a compound in humans is to measure the degradation of the compound in the presence of human liver microsomes. The following is the half-lives of the four compounds in human liver microsomes: […]

The next data set deals with MV4-11. The data set can be described thus: IC50 determination, MV4-11. In kind it is cell-based. Particulars: Homo sapiens, Acute monocyctic leukemia, read-out: Anticancer activities, MV4-11. The protocol:
as §2, §3

A further data set has as its system MOLM14. The experiment in a line: WST-1 IC50 determination, MOLM14. Particulars: Homo sapiens, MOLM-14, read-out: Anticancer activities, Molm14. In kind it is cell-based. As to the method:
as §2, §3

The nature of another data set: Tolerability studies. The data set is classed as in vivo. Particulars: mice, 10 mg/Kg.
The next data set deals with NBM. The experiment in a line: WST-1 IC50 determination, normal bone marrow. In kind it is cell-based, human. Particulars: Homo sapiens, Bone marrow cell; Normal bone marrow cells; read-out: Anticancer activities, NBM. The protocol: as §1, §2, §3
The next data set concerns HT29. Particulars: read-out: IC50 of cisplatin; cited from earlier work.
The test system of a further data set is U2-OS. Particulars: read-out: IC50 of cisplatin; cited from earlier work.
The next data set has as its system Calu-3. Particulars: read-out: IC50 of cisplatin; cited from earlier work.
A further data set relates to MCF-7/DX. Particulars: read-out: IC50 of cisplatin; cited from earlier work.
The next data set concerns A375. Particulars: read-out: IC50 of cisplatin; cited from earlier work.
For the next data set, the system named is PANC-1. Particulars: read-out: IC50 of cisplatin; cited from earlier work.
The subject of a further data set is CFPAC-1. Particulars: read-out: IC50 of cisplatin; cited from earlier work.
In another data set the test system is PNT1. Particulars: read-out: IC50 of cisplatin; cited from earlier work.
A further data set relates to SW872. Particulars: read-out: IC50 of cisplatin; cited from earlier work.
The next data set concerns Hep2. Particulars: read-out: IC50 of cisplatin; cited from earlier work.
A further data set has as its system RD. Particulars: read-out: IC50 of cisplatin; cited from earlier work.
A further data set deals with CAPAN-1. Particulars: read-out: IC50 of cisplatin; cited from earlier work.
Another data set deals with PC3. Particulars: read-out: IC50 of cisplatin; cited from earlier work.
A further data set deals with A431. Particulars: read-out: IC50 of cisplatin; cited from earlier work.
For a further data set, the system named is HOS. Particulars: read-out: IC50 of cisplatin; cited from earlier work.
The subject of another data set is SAOS-2. Particulars: read-out: IC50 of cisplatin; cited from earlier work.
In the next data set the test system is HT1080. Particulars: read-out: IC50 of cisplatin; cited from earlier work.
A further data set deals with OVCAR-3. The data set can be described thus: WST-1 IC50 determination, OVCAR-3. Particulars: 72 hours, WST-1; read-out: Anticancer activity IC50 ± SD, OVCAR-3. The data set is classed as cell-based, human. The protocol: as §1, §2, §3
For the next data set, the system named is SH-SY5Y. Particulars: read-out: IC50 of cisplatin; cited from earlier work.
Another data set relates to F21T. The data set can be described thus: FRET melting assay, F21T. The data set is classed as binding. Particulars: dual-labeled DNA 0.2 μM, DMZ analogues 1 μM, potassium cacodylate 60 mM pH 7.2. As to the method:
(§4) Fluorescence resonance energy transfer (FRET) assay to determine Tm in absence and presence of ligands. Dual-labelled DNA was diluted from stock (50 μM) to 400 nM in 60 mM potassium cacodylate buffer (pH 7.2) and then annealed by heating at 85° C. for 10 min followed by cooling to room temperature in the heating block. Compounds were diluted from stock (20 mM in DMSO) to 2 μM in 60 mM cacodylate buffer (pH 7.2). 25 μL annealed DNA was added to 96-well plate followed by 25 μL diluted compounds. The sequences of labelled oligonucleotides were as follows: F21T 21-mer (5′-FAM-GGGTTAGGGTTAGGGTTAGGG-TAMRA-3′) (SEQ ID NO:11), c-kit2 26-mer (5′-FAM-CCCGGGCGGGCGCGAGGGAGGGGAGG-TAMRA-3′) (SEQ ID NO:12), k-RAS21R 21-mer (5′-FAM-AGGGCGGTGTGGGAAGAGGGA-TAMRA-3′) (SEQ ID NO:13), c-MYC 22-mer (5′-FAM-TGAGGGTGGGTAGGGTGGGTAA-TAMRA-3′) (SEQ ID NO:14) and duplex 26-mer (5′-FAM-TATAGCTATATTTTTTTATAGCTATA-TAMRA-3′) (SEQ ID NO: 15). Measurements were made in triplicate by using a LightCycler 480 System RT-PCR machine (Roche) and average values were reported. Fluorescence readings were made with excitation at 450-495 nm and detection at 515-545 nm, taken at intervals of 1.2° C./min in the range 25° C. to 95° C.

The test system of a further data set is k-RAS21R. The data set can be described thus: FRET melting assay, k-RAS21R. Particulars: dual-labeled DNA 0.2 μM, DMZ analogues 1 μM, potassium cacodylate 60 mM pH 7.2. The data set is classed as binding. The protocol: as §4
For another data set, the system named is c-MYC. The experiment in a line: FRET melting assay, c-MYC. The data set is classed as binding. Particulars: dual-labeled DNA 0.2 μM, DMZ analogues 1 μM, potassium cacodylate 60 mM pH 7.2. As to the method:
as §4

The subject of another data set is c-kit2. The data set can be described thus: FRET melting assay, c-kit2. In kind it is binding. Particulars: dual-labeled DNA 0.2 μM, DMZ analogues 1 μM, potassium cacodylate 60 mM pH 7.2. As to the method:
as §4

Another data set relates to duplex. The experiment in a line: FRET melting assay, duplex DNA. In kind it is binding. Particulars: dual-labeled DNA 0.2 μM, DMZ analogues 1 μM, potassium cacodylate 60 mM pH 7.2. As to the method:
as §4

The test system of data set [3] is G-quadruplex DNAs (c-kit1, VEGF, bcl-2 2345 and TBA). The experiment in a line: UV-visible titration with G-quadruplex DNA. The data set is classed as binding. Particulars: UV-visible titration conditions. The protocol:
UV titration studies of DNA with the triazene ligands, DMZ and Triazene-1. The molar extinction coefficients at 260 nm for 22-mer c-kit1, 18-mer VEGF, 23-mer bcl-2 2345, 15-mer TBA and 20-mer 8 bp AT are as follows 226,700 M^−1 cm^−1, 169,800 M^−1 cm^−1, 227,300 M^−1 cm^−1, 143,300 M^−1 cm^1 and 205,500 M^−1 cm^−1, respectively. The concentration of ligands used in this study was 10 μM and the DNA concentrations were 0, 0.25, 1.5, 3, 5, 6, 7, 8, 9, 10, 20, 30, 40, 50, 100, and 15 μM. The buffer contained 250 mM KCl, 50 mM Tris-HCl (at pH 7.5). The following quadruplex DNA were tested: c-kit1, VEGF, bcl-2 2345, and TBA. Duplex DNA (8 bp AT) was also tested. The sample was first heated up to 95° C. for 5 min without the ligand and then cooled down to room temperature in 15 min. The ligand was then added and the mixture was incubated at 4° C. for ˜12 h before recording the data. In case of Triazene-1 and Triazene-2, the sample mixture contained 1% DMSO.

[4] abbreviates: human, liver microsomes, read-out: NADPH-dependent T½.
The mark [5] stands for this setting: human, liver microsomes, read-out: NADPH-independent T½.
[6] abbreviates: 72 hours, WST-1, read-out: Anticancer activity IC50 ± SD, PC-3.
[7] abbreviates: 72 hours, WST-1, read-out: Anticancer activity IC50 ± SD, MDA-MB-231.

Molecules are shown by their SMILES. Like-named read-outs stand apart in the source and are kept apart here. Where only a bound is given, the exact number is not on record here.

In the case of `N=C(N)c1ccc(/N=N/c2c(N)ncc3ccc(Br)cc23)cc1` [HSW630-1], the “migration of cancer cells” value is given as “prevents cancer cells from migrating” in data set [1] and “can inhibit migration” in data set [1] (listed as 630-1). The IC50 was 0.59 µM in the data set with PC-3 (Homo sapiens, PC-3, prostate cancer, read-out: Anticancer activities, PC3); 0.56 µM in the data set on U87; 0.48 to 0.92 µM in the data set on MDA-MB-231 (Homo sapiens, MDA-MB-231, triple negative breast cancer, read-out: Anticancer activities, TNBC 231); 0.15 µM in the data set on MV4-11; 0.14 µM in the data set on MOLM14; 5.1 µM with NBM. Besides, the half-life in data set [2] (setting [4]) turned out to be 3.18 h; in data set [2] (setting [5]), 2.07 h. Further, the tolerability entry in the data set “Tolerability studies” is recorded as “can be tolerated”.
Take `N.N.[Cl][Pt][Cl]` [Cisplatin]: the IC50 with HT29 was 22 µM; with U2-OS, 20 µM; in the data set with Calu-3, more than 50 µM; with MCF-7/DX, 7 µM; in the data set with A375, 6 µM; in the data set on PC-3 (setting [6]), 10.5 ± 1.3 µM. Also, the IC50 in the data set on PC-3 (prostate cancer, read-out: Anticancer activities, PC3) is 10.5 µM; with PANC-1 it was 15 µM; in the data set on CFPAC-1, 38 µM; in the data set with PNT1, 5 µM; in the data set on MDA-MB-231 (setting [7]), 11.7 ± 1 µM; in the data set on MDA-MB-231 (triple negative breast cancer, read-out: Anticancer activities, TNBC 231), 11.7 µM. Further, the IC50 in the data set with SW872 was 5 µM; in the data set with Hep2, 7 µM; with RD, 6 µM; with CAPAN-1, more than 50 µM; in the data set on PC3, 12 µM; with A431, 20 µM. In addition, the IC50 with HOS was 10 µM; in the data set with SAOS-2, 11 µM; in the data set with HT1080, 9 µM; with OVCAR-3, 4.1 ± 1.8 µM; with SH-SY5Y, 2 µM.
On to `CCCCNC(=N)c1ccc(/N=N/c2c(N)ncc3ccc(Br)cc23)cc1` [HSY430-6], for which the half-life amounted to 2.57 h in [2] (setting [4]) and 2.38 h in [2] (setting [5]).
With `CC(C)NC(=N)c1ccc(/N=N/c2c(N)ncc3ccc(Br)cc23)cc1` [HSY430-5], the “NADPH-independent T½” value in [2] (human liver microsomes) was more than 4 h. Besides, the half-life in data set [2] (human liver microsomes, read-out: NADPH-dependent T½) was more than 4 h.
For the molecule `C#Cc1ccc(NN=Nc2ccc(C(=N)N)cc2)cc1` [DMZ3], the “ΔTm F21T” value in the data set with F21T was 4.57 ± 0.26 °C. In addition, the “ΔTm k-RAS21R” value in the data set on k-RAS21R was determined as 5.66 ± 0.51 °C. Moreover, the figures for the IC50 in the data set with PC-3 (setting [6]), in the data set on MDA-MB-231 (setting [7]) and in the data set with OVCAR-3 were 22.5 ± 8.8 µM, 30.2 ± 1.8 µM and 11.8 ± 1.7 µM, respectively. In addition, the “ΔTm c-MYC” value in the data set on c-MYC came out at 7.13 ± 0.45 °C. Also, in the data set with c-kit2, the “ΔTm c-kit2” value stood at 5.30 ± 0.26 °C. In addition, in the data set on duplex, the ΔTm duplex result is “NE (NE means not effective binding (ΔTm < 1° C.))”.
As for `c1ccc(N=NNc2ccccc2)cc1` [Triazene-2], the self-aggregation entry in data set [3] is reported as “exhibited self-aggregation”.
